Experiments:
Assay in all cases: cells
Design in all cases: Anti-proliferation, 10-point dose response, CellTiter-Glo luminescence (MTT stated for KM12(Luc)), GI50 fitted in Prism
8505C = conditions: Homo sapiens, 8505C, 72 h, read-out: GI50 (µM) a
Method: (§1) To obtain the GI50 value of a substance, cell viability was measured using MTT (G4000, Promega, USA) for KM12(Luc) cell and Cell titer glo (G7572, Promega, USA) for other cell lines. For adherent cells, cells were seeded at 5,000 cells/well in a 96-well plate and treated with a substance one day after cell seeding. For suspension cells, 10,000 cells/well were seeded and the substance was treated after 4 h stabilization of cells. The substance was treated at 10 points of 1:3 serial dilution (0–100 µmol/L) for 72 h. For MTT assay, 15 µL dye solution was added to each well and incubated 4 h at 37°C. 100 µL of solubilization solution was added and followed 1 hr incubation. Absorbance at 570 nm of each well was recorded using EnVision microplate reader (Perkin Elmer). For Cell titer glo assay, Cell titer glo reagent was treated in each well and measured the luminescence by EnVision microplate reader (Perkin Elmer). Viable cells in each well were normalized by using 0.5% DMSO-treated wells (100%). The inhibitor dose−response curve was fitted and GI50 values were calculated using Prism 7.0 software (GraphPad). All assays were performed in duplicate and the standard deviation (SD) was determined from two independent experiments. KM12(Luc) was purchased from the JCRB cell bank. KM12 (Luc) was used within 6 months after purchase and the DNA profiles were confirmed using a short tandem repeat (STR) analysis by the Korean Cell Line Bank. KM12(Luc) cells were maintained in DMEM supplemented with 10% FBS and antibiotics. Parental Ba/F3 cells were purchased from DSMZ and were grown in RPMI1640 supplemented with 10% FBS and antibiotics in the presence of IL3, Transformed Ba/F3 cell lines were grown in the same media without IL3. Cells used in this study were negative for mycoplasma contamination. AN3-CA, HEC1A, U138, 8505C, MKN28, MKN45, A172, A375, Capan-1 HeLa, HEP3B, MCF-7 and MIA-paca-2 cells were maintained in DMEM (Welgene, Korea) supplemented with 10% FBS and antibiotics (Welgene, Korea). Otherwise, all cells were maintained in RPMI (Welgene, Korea) supplemented with 10% FBS and antibiotics (Welgene, Korea). To identify AZD4547 sensitive cell lines other than FGFR-mutant driven cancer cells, GI50 values were determined for AZD4547 against 64 different cancer cell lines, including AN3-CA used as a positive control ( Figure 1A and Table S1 ). […] Also, inhibitory activity of AZD4547 against DDR1 or FLT3 allows suppression of proliferation of U-2-OS and MV4-11 ([43]). Therefore, our attention focused on the inhibitory activity of AZD4547 against KM12(Luc) cell lines which have the TPM3-NTRK1 fusion gene. To exclude the possibility that the anti-proliferation activity of AZD4547 against KM12(Luc) is a common characteristic of FGFR inhibitors, we determined if BGJ398, a representative FGFR inhibitor, is also capable of suppressing proliferation of KM12(Luc) cells ( Figure 1B ).

HL-60 = conditions: Homo sapiens, HL-60, 72 h, read-out: GI50 (µM) a
Method: as §1

HTH-7 = conditions: KM12-Luc, 72 h, read-out: GI50 (µM) a
Method: as §1

K-562 = conditions: Homo sapiens, K562, 72 h, read-out: GI50 (µM) a
Method: as §1

MKN45 = conditions: Homo sapiens, MKN-45, 72 h, read-out: GI50 (µM) a
Method: as §1

MOLT-4 = conditions: Homo sapiens, MOLT-4, 72 h, read-out: GI50 (µM) a
Method: as §1

NCI-H1666 = conditions: Homo sapiens, NCI-H1666, 72 h, read-out: GI50 (µM) a
Method: as §1

NCI-H417 = conditions: Homo sapiens, NCI-H417, 72 h, read-out: GI50 (µM) a
Method: as §1

PC-3 = conditions: Homo sapiens, PC-3, 72 h, read-out: GI50 (µM) a
Method: as §1

U-87-MG = conditions: Homo sapiens, U-87 MG, 72 h, read-out: GI50 (µM) a
Method: as §1

U138 = conditions: KM12-Luc, 72 h, read-out: GI50 (µM) a
Method: as §1

U251 = conditions: Homo sapiens, U-251, 72 h, read-out: GI50 (µM) a
Method: as §1

For `COc1cc(CCc2cc(NC(=O)c3ccc(N4C[C@@H](C)N[C@@H](C)C4)cc3)n[nH]2)cc(OC)c1` [AZD4547], the GI50 (8505C) was 14.7 µM, the GI50 (HL-60) was 9.31 µM and the GI50 (HTH-7) was 6.44 µM. The GI50 (K-562) was 17.1 µM, the GI50 (MKN45) was 12 µM and the GI50 (MOLT-4) was 6.59 µM. For the same compound, the GI50 (NCI-H1666) was 10.8 µM, the GI50 (NCI-H417) was 5.99 µM and the GI50 (PC-3) was 10.6 µM. The GI50 (U-87-MG) was 8.94 µM, the GI50 (U138) was 8.48 µM and the GI50 (U251) was 11.6 µM.

Reference: article PMC8591201, “Anti-Tumor Activity of AZD4547 Against NTRK1 Fusion Positive Cancer Cells Through Inhibition of NTRKs” (Frontiers in Oncology, 2021)
